EC50 data for 15 compounds are collected here from US10604512B2, “3-(1H-indol-2-yl)-1H-indazoles and therapeutic uses thereof” (Samumed, LLC, priority 2015, dated 2020).

Assay type in all cases: cell-based
Experiment [1] relates to Primary human fibroblasts derived from IPF patients (LL29 cells) treated with TGF-β1. Put plainly: Inhibition of the fibrotic process: αSMA staining in TGF-β1-treated primary human fibroblasts from IPF patients (LL29 cells). The conditions noted are these: Fibroblast, 96 h, % αSMA-positive LL29 cells, TGF-β1 20 ng/mL, 4 days. Summed up:
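LL29 IPF-patient fibroblasts in 1% FBS stimulated with TGF-β1 (20 ng/mL) and compound (10 μM–1.87 nM, 0.1% DMSO) for 4 days at 37 °C. SYTOX-positive cells excluded; % αSMA-positive cells imaged, normalized to TGF-β1/DMSO wells; EC50 by nonlinear regression, else % inhibition at 10 μM.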

In experiment [2] the test system is SW480 colon cancer cells. Put plainly: Cell viability assay (CellTiter-Blue) in SW480 colon cancer cells. Conditions: Homo sapiens, 96 h, four days, CellTiter-Blue. An outline of the steps: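 Resazurin reduction (Ex 560/Em 590 nm, ~3 h reagent incubation) served as the viability read-out after SW480 cells were treated for four days at 37 °C. Doses ran from 10 μM down to 0.0045 μM in eight 1:3 steps. Curves fitted non-linearly for EC50, else % inhibition at 10 μM reported.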

Experiment [3] concerns IL-6. The experiment in a line: Inhibition of IL-6 in LPS-stimulated THP-1 human monocyte cells (HTRF). Conditions: IL-6 inhibition, LPS-stimulated THP-1 cells, HTRF. Summed up: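 THP-1 cells serum-reduced (1% FBS, 24 h), then 5000 cells/well preincubated 2 h with compound (10-point 1:3 series from 10 μM, 0.1% DMSO) before 500 ng/mL LPS for 22 h at 37 °C. Secreted IL-6 quantified by HTRF 665/620 ratio; DMSO-normalised duplicates fitted to four-parameter EC50; above 10 μM, % inhibition at 10 μM given.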

Experiment [4] has as its system Wnt activity (Sp5-Luc reporter, TCF/LEF binding sites) in SW480 colon carcinoma cells. Put plainly: Screening assay for Wnt activity: Sp5-Luc reporter gene assay in stably transduced SW480 colon carcinoma cells. Conditions: Homo sapiens, overnight incubation, 10-point curve from 10 μM. Summed up: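 SW480 cells stably transduced with a luciferase reporter driven by an Sp5 promoter of eight TCF/LEF sites were plated at 4,000 cells/well in 1% FBS medium. They were exposed overnight at 37° C to a 10-point 1:3 dilution series from 10 μM (0.1% DMSO). Luminescence was normalized to DMSO for four-parameter EC50, or percent inhibition at 10 μM.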

Molecules are shown by their SMILES.

Regarding `CS(=O)(=O)NCc1cc(F)cc(-c2cccc3[nH]c(-c4n[nH]c5ccc(-c6cncc(CN7CCCCC7)c6)cc45)cc23)c1` [Compound 491, N-(3-Fluoro-5-(2-(5-(5-(piperidin-1-ylmethyl)pyridin-3-yl)-1H-indazol-3-yl)-1H-indol-4-yl)benzyl)methanesulfonamide], the EC50 is 833 nM in experiment [1], 1490 nM in experiment [2], 5450 nM in experiment [3] and 540 nM in experiment [4].
As to `CS(=O)(=O)NCc1cc(F)cc(-c2cccc3[nH]c(-c4n[nH]c5ccc(-c6cncc(NC(=O)C7CC7)c6)cc45)cc23)c1` [Compound 496, N-(5-(3-(4-(3-Fluoro-5-(methylsulfonamidomethyl)phenyl)-1H-indol-2-yl)-1H-indazol-5-yl)pyridin-3-yl)cyclopropanecarboxamide], the EC50 in experiment [1] came to 399 nM; in experiment [2] it was 1030 nM; in experiment [3], 991 nM; in experiment [4], 130 nM.
For the compound `CS(=O)(=O)NCc1cc(F)cc(-c2cccc3[nH]c(-c4n[nH]c5ccc(-c6cncc(CN7CCC(F)(F)C7)c6)cc45)cc23)c1` [Compound 502, N-(3-(2-(5-(5-((3,3-Difluoropyrrolidin-1-yl)methyl)pyridin-3-yl)-1H-indazol-3-yl)-1H-indol-4-yl)-5-fluorobenzyl)methane sulfonamide], the EC50 in experiment [1] was 811 nM; in experiment [2], 3270 nM; in experiment [3], 3140 nM; in experiment [4], 475 nM.
For `CCNCc1cncc(-c2ccc3[nH]nc(-c4cc5ncccc5[nH]4)c3c2)c1` [Compound 510, N-((5-(3-(1H-pyrrolo[3,2-b]pyridin-2-yl)-1H-indazol-5-yl)pyridin-3-yl)methyl)ethanamine], the EC50 worked out at 1590 nM in experiment [1], 345 nM in experiment [2], 98 nM in experiment [3] and 464 nM in experiment [4].
On to `Fc1ccccc1-c1cccc2[nH]c(-c3n[nH]c4ccc(-c5cncc(OC6CCNCC6)c5)cc34)cc12` [Compound 572, 3-(4-(2-Fluorophenyl)-1H-indol-2-yl)-5-(5-(piperidin-4-yloxy)pyridin-3-yl)-1H-indazole], for which the EC50 was determined as 2230 nM in experiment [1], 1400 nM in experiment [2], 3500 nM in experiment [3] and 1020 nM in experiment [4].
The matching figures for `c1cncc(-c2cccc3[nH]c(-c4n[nH]c5ccc(-c6cn[nH]c6)cc45)cc23)c1` [Compound 583, 5-(1H-Pyrazol-4-yl)-3-(4-(pyridin-3-yl)-1H-indol-2-yl)-1H-indazole]: 501 nM, 128 nM, 78 nM and 49 nM.
For `Cn1cc(-c2ccc3[nH]nc(-c4cc5c(-c6cccnc6)cccc5[nH]4)c3c2)cn1` [Compound 584, 5-(1-Methyl-1H-pyrazol-4-yl)-3-(4-(pyridin-3-yl)-1H-indol-2-yl)-1H-indazole], the EC50 came to 6820 nM in experiment [1], 949 nM in experiment [2], 12 nM in experiment [3] and 150 nM in experiment [4].
For `NC1CN(c2cncc(-c3ccc4[nH]nc(-c5cc6c(N7CCCCC7)cccc6[nH]5)c4c3)n2)C1` [Compound 634, 1-(6-(3-(4-(piperidin-1-yl)-1H-indol-2-yl)-1H-indazol-5-yl)pyrazin-2-yl)azetidin-3-amine], the EC50 in experiment [1] amounted to 794 nM; in experiment [2], 1250 nM; in experiment [3], 74 nM; in experiment [4] it was 468 nM.
`COc1cncc(-c2ccc3[nH]nc(-c4cc5c(-c6ccsc6)cccc5[nH]4)c3c2)c1` [Compound 704, 5-(5-Methoxypyridin-3-yl)-3-(4-(thiophen-3-yl)-1H-indol-2-yl)-1H-indazole]: the EC50 in experiment [1] came to 31 nM; in experiment [2], 1800 nM; in experiment [3], 245 nM; in experiment [4], 565 nM.
The matching figures for `O=C(CC1CCCCC1)Nc1cncc(-c2ccc3[nH]nc(-c4cc5c(-c6ccsc6)cccc5[nH]4)c3c2)c1` [Compound 707, 2-Cyclohexyl-N-(5-(3-(4-(thiophen-3-yl)-1H-indol-2-yl)-1H-indazol-5-yl)pyridin-3-yl)acetamide]: greater than 10000 nM, 2130 nM, 1300 nM and 570 nM.
The matching figures for `CN(C)CCOc1cncc(-c2ccc3[nH]nc(-c4cc5c(-c6ccoc6)cccc5[nH]4)c3c2)c1` [Compound 719, 2-((5-(3-(4-(Furan-3-yl)-1H-indol-2-yl)-1H-indazol-5-yl)pyridin-3-yl)oxy)-N,N-dimethylethan-1-amine]: 1950 nM, 1370 nM, 1710 nM and 680 nM.
For the compound `c1cc(-c2ccoc2)c2cc(-c3n[nH]c4ccc(-c5cnccn5)cc34)[nH]c2c1` [Compound 724, 3-(4-(Furan-3-yl)-1H-indol-2-yl)-5-(pyrazin-2-yl)-1H-indazole], the EC50 in experiment [1] turned out to be 96 nM; in experiment [2], 3510 nM; in experiment [3], 31 nM; in experiment [4] it was 791 nM.
For `CS(=O)(=O)NCc1cc(F)cc(-c2cccc3[nH]c(-c4n[nH]c5ccc(-c6cncc(OCc7ccccc7)c6)cc45)cc23)c1` [Compound 802, N-(3-(2-(5-(5-(Benzyloxy)pyridin-3-yl)-1H-indazol-3-yl)-1H-indol-4-yl)-5-fluorobenzyl)methanesulfonamide] the same measures were 400 nM, 461 nM, 802 nM and 189 nM.
For `CN(C)CCNc1cc(F)cc(-c2cccc3[nH]c(-c4n[nH]c5ccc(-c6cnn(C)c6)cc45)cc23)c1` [Compound 808, N^1-(3-Fluoro-5-(2-(5-(1-methyl-1H-pyrazol-4-yl)-1H-indazol-3-yl)-1H-indol-4-yl)phenyl)-N^2,N^2-dimethylethane-1,2-diamine] the same measures were 88 nM, 89 nM, 6 nM and 69 nM.
For `CN(C)CCNc1cc(F)cc(-c2cccc3[nH]c(-c4n[nH]c5ccc(-c6cncc(N7CC(N)C7)n6)cc45)cc23)c1` [Compound 810, N^1-(3-(2-(5-(6-(3-Aminoazetidin-1-yl)pyrazin-2-yl)-1H-indazol-3-yl)-1H-indol-4-yl)-5-fluorophenyl)-N^2,N^2-dimethylethane-1,2-diamine], the EC50 in experiment [1] was found to be 653 nM; in experiment [2], 458 nM; in experiment [3], 77 nM; in experiment [4] it was 224 nM.
